From patent publication US20240158430A1, “NOVEL COMPOUND OR SALT THEREOF, AND ANTITUMOR ACTIVATOR CONTAINING SAME AS ACTIVE INGREDIENT” (AKITA UNIVERSITY, priority 2021, published 2024)
Values joined by “and” are separate entries in the source; they are usually repeats but may differ in a detail not shown here. Identical values can stand only once. Like-named read-outs stand apart in the source and are kept apart here.

Tests used:
[1] = tested on: vascular endothelial cells HUVEC-R resistant to Ki8751; experiment: Angiogenesis inhibitory activity, HUVEC-R; format: cell-based; conditions: Table 11; number of cells after 72 hours
Procedure: HUVEC-R was cultured in the presence of each compound using an EGMTM-2 Bullet Kit (Takara Bio Inc., Otsu, Japan), and the number of cells was measured after 72 hours. In addition, IC50 was determined from the results.

[2] = tested on: Kato III; experiment: Cytocidal effect, Kato III; format: cell-based; conditions: 2 μM and 5 μM, cells counted after 48 and 72 hours
Procedure: The method is as follows. Each cell line was added to 6-well plate by 5×10^4, 2 μM and 5 μM of GO-Y199 were added after 24 hours, and the number of cells was counted after 48 hours and 72 hours.

[3] = tested on: pancreatic cancer cell line Panc-1; experiment: Cell growth inhibitory activity, Panc-1; format: cell-based; conditions: Table 7
Procedure: [The source words this procedure for another cell line and reports this cell line under the same test.] (§1) The cell growth inhibitory activity against a colorectal cancer cell line HCT116 was measured. As an index of cell growth inhibitory activity, a concentration at which cell growth was inhibited by 50% as compared with a control (IC50) was used. The method is as follows. HCT116 was added to a 6-well plate by 5×10^4, compounds having various concentrations were added after 24 hours, and the number of cells was counted after 72 hours of culture. As the control, DMSO was used in an amount equal to the amount added in accordance with the addition concentration of the highest-concentration compound. The number of cells at each concentration relative to the control was expressed as a percentage.
(§2) The method is as described above.

[4] = tested on: β-catenin; experiment: Influence on β-catenin, ELISA; format: cell-based; conditions: control 11.5±2.3
Procedure: (§3) The influence of GO-Y199 on NF-kB (p65) was investigated. The method is as follows. 3×10^6 cells of the HCT116 cell line were added to a 10-cm plate, 2 μM of GO-Y199 was added after 24 hours, the cells were collected after 24 hours, embedded in iPGell (GenOStaff), and fixed in formalin, paraffin blocks were then prepared, and immuno-histochemistry was performed with an anti-NF-kB (p65) antibody. In addition, 2 μM and 5 μM of GO-Y199 were added, lysates were collected after 24 hours, and an expression level of NF-kB (p65) was analyzed using an ELISA-plate (NF-kBp65 (pS536) SimpleStep-ELISA-kit, Abcam). An amount of protein was corrected by the absorbance of A 280 nm. The upper part of FIG. 14 indicates photographs of the control group and the GO-Y199 (2 μM)-added group after 24 hours. The lower part of FIG. 14 indicates results of the t-test of these groups after 24 hours. FIG. 15 indicates the comparison results of the NF-kB inhibitory effect of GO-Y199 (2 μM, 5 μM)-added groups with respect to the control group.
The influence of GO-Y199 on β-catenin was investigated. The method is as described above. Immunohistochemistry was performed with an anti-β-catenin antibody. Protein quantification was performed using an ELISA plate (proteintech). FIG. 17 indicates photographs of the control group and the GO-Y199 (2 μM)-added group after 24 hours. […]

[5] = tested on: HCT116; experiment: In vivo antitumor effect, HCT116 subcutaneous implant; conditions: nude mouse, HCT116 s.c.; 1 mg single tail vein injection; maximum diameter 4 days after; control 113.7±12.4%
Procedure: The in vivo antitumor effect of GO-Y199 was investigated. The method is as follows. HCT116 was implanted subcutaneously into a nude mouse. After tumor formation, 100 mM GO-Y199 in DMSO was dissolved in 100 μL of PBS and injected once into the tail vein of the mouse (corresponding to 1 mg of GO-Y199). As a control group, a DMSO-PBS solution having the equivalent concentration was injected once into the tail vein. The maximum diameter of the tumor was measured 4 days after the administration.

[6] = tested on: cutaneous T-cell lymphoma cell line HH; experiment: Cell growth inhibitory activity, HH; format: cell-based; conditions: Table 10
Procedure: [The source words this procedure for another cell line and reports this cell line under the same test.] as §1, §2

[7] = tested on: pSTAT3; experiment: Influence on pSTAT3, immunohistochemistry; format: cell-based; conditions: 2 μM; 24 hours; control 10.2±1.6%
Procedure: as §3
The influence of GO-Y199 on pSTAT3 was investigated. The method is as described above. Immunohistochemistry was performed with an anti-pSTAT3 antibody. The upper part of FIG. 16 indicates photographs of the control group and the GO-Y199 (2 μM)-added group after 24 hours. The lower part of FIG. 16 indicates results of the t-test of these groups after 24 hours.

[8] = tested on: gastric cancer cell line KATO III; experiment: Cell growth inhibitory activity, KATO III; format: cell-based
Procedure: as §1, §2
(§4) The cell growth inhibitory activity (IC50) of each of curcumin, GO-Y199, and GO-Y206 against the colorectal cancer cell lines DLD-1 and HCT116 and the gastric cancer cell lines KATO III and H-111-TC was measured. The method is as described above.

[9] = Safety and toxicity test; format: in vivo, mouse
Procedure: In vivo safety and toxicity of GO-Y199 were investigated. The method is as follows. As described above, the equivalent of 1 mg of GO-Y199 was injected into the tail vein, blood was collected from the orbital vein 7 days later, and a hemoglobin value (Hb), the number of white blood cells (WBC), and the number of platelets (Plt) were measured with Cell tac MEK-5258 (available from Nihon Kohden Corporation). A creatinine value (Cre), a total bilirubin value (T-Bil), and an AST value were subjected to outsourcing (measured in Skylight Biotech Inc.). FIG. 29 indicates change in body weight of mice after intravenous injection. FIG. 30 indicates photographs of the tail of the mouse after intravenous injection.

[10] = tested on: colorectal cancer cell line HCT116; experiment: Cell growth inhibitory activity, HCT116; format: cell-based
Procedure: as §1, §2, §4

[11] = individual mice, 7 days after 1 mg iv

COCOc1cc(/C=C/C(=O)CC(SCCOCCOCCOCCOCc2cn([C@@H]3O[C@H](CO)[C@@H](O[C@@H]4O[C@H](CO)[C@H](O)[C@H](O)[C@H]4O)[C@H](O)[C@H]3O)nn2)c2cc(OCOC)cc(OCOC)c2)cc(OCOC)c1 (stereo partly shown) [GO-Y199]
IC50 [1]: 0.96 µM | cytocidal effect [2]: cytocidal effect | IC50 [3]: 0.95 µM | relative expression level of β-catenin ([4]; 2 μM): 2.8±0.8 | relative expression level of β-catenin ([4]; 5 μM): 3.9±1.1 | tumor augmentation, % of that before the administration [5]: 95.2±20.0% | IC50 [6]: 1.11 µM | relative expression level of pSTAT3 [7]: 0.3±0.5% | IC50 ([8]; Table 4, 72 hours, read-out: IC50 KATO III): 0.8 µM | IC50 ([8]; Table 6, read-out: IC50 (μM) KATO III): 3.86 µM | Cre (mg/dL) Ave. ± SD ([9]; 7 days after 1 mg iv, control 0.24 ± 0.15): 0.15 ± 0.02 mg/dL | T-Bil (mg/dL) Ave. ± SD ([9]; 7 days after 1 mg iv, control 0.47 ± 0.17): 0.33 ± 0.19 mg/dL | AST (U/L) Ave. ± SD ([9]; 7 days after 1 mg iv, control 65.0 ± 9.1): 62.0 ± 8.6 U/L | hematology and blood chemistry vs control group ([9]; Tables 12 and 13): no significant difference | body weight vs control group ([9]; after intravenous injection): no difference in body weight | local finding in the tails ([9]; after tail vein injection): no local abnormal finding | AST (U/L) [9, 11]: 63 U/L and 72 U/L and 51 U/L | Cre [9, 11]: 0.18 mg/dL and 0.14 mg/dL and 0.13 mg/dL | T-Bil [9, 11]: 0.2 mg/dL (2×) and 0.6 mg/dL | overall safety ([9]; mouse model): safe | IC50 ([10]; Table 3, HCT116, cell count after 72 hours of culture vs DMSO control, read-out: IC50): 0.43 µM | GO-Y199 vs GO-Y030 (IC50 comparison), HCT-116 ([10]; Table 5, ratio of IC50): 0.65 | GO-Y199 vs curcumin (IC50 comparison), HCT-116 ([10]; Table 5, ratio of IC50): 0.029 | IC50 ([10]; Table 6, read-out: IC50 (μM) HCT116): 0.98 µM | IC50 ([10]; read-out: IC50 HCT-116, Table 4, 72 hours): 0.46 µM
